The values that follow come from ChEMBL document CHEMBL4043250 (Bioorg Med Chem Lett, 2017).

SMILES strings stand for the structures.

A short description of series [1]: Selectivity index, ratio of IC50 for human L02 cells to IC50 for human AGS cells. It counts as functional.
In series [2] the test system is AGS. The experiment in a line: Anti-proliferative activity against human AGS cells after 48 hrs by MTT assay. The series is classed as functional, cell-based. In general terms: Formazan colour is commonly taken as a measure of viable cells.
Series [3] deals with AGS. As to the kind of experiment: Growth inhibition of human AGS cells at 100 uM after 48 hrs by MTT assay relative to control. The series is classed as functional. The conditions noted are these: read-out: GI.
The subject of another series is L02. As to the kind of experiment: (§1) Anti-proliferative activity against human L02 cells after 48 hrs by MTT assay. The series is classed as ADME, cell-based. Also on record: inhibition at 48 h: concentration or dose not given beside the values. The conditions noted are these: Homo sapiens, L02, 48 h.
Series [4] can be described thus: as §1. It counts as ADME, cell-based. Also on record: inhibition at 48 h: concentration or dose not given beside the values. As to conditions: human, L02 cells.
In series [5] the test system is AGS. The experiment in a line: Induction of apoptosis in human AGS cells assessed as early apoptotic cells at 10 uM after 48 hrs by Annexin-V-FITC/propidium iodide staining based flow cytometry (reference value: 0.2%). It counts as functional. For orientation: In flow cytometry, cells or beads pass a laser one at a time.
In series [6] the test system is AGS. The experiment in a line: Cell cycle arrest in human AGS cells assessed as accumulation at G1 phase at 10 uM after 48 hrs by propidium iodide staining based flow cytometry (reference value: 77.02%). The series is classed as functional.
The test system of series [7] is AGS. As to the kind of experiment: Induction of apoptosis in human AGS cells assessed as necrotic cells at 10 uM after 48 hrs by Annexin-V-FITC/propidium iodide staining based flow cytometry (reference value: 2%). It counts as functional.
Series [8] deals with AGS. As to the kind of experiment: Cell cycle arrest in human AGS cells assessed as accumulation at G1 phase at 0.1 uM after 48 hrs by propidium iodide staining based flow cytometry (reference value: 77.02%). It counts as functional.
The subject of series [9] is AGS. The experiment in a line: Cell cycle arrest in human AGS cells assessed as accumulation at S phase at 10 uM after 48 hrs by propidium iodide staining based flow cytometry (reference value: 6.57%). It counts as functional.
Series [10] relates to AGS. As to the kind of experiment: Induction of apoptosis in human AGS cells assessed as viable cells at 10 uM after 48 hrs by Annexin-V-FITC/propidium iodide staining based flow cytometry (reference value: 97.5%). The series is classed as functional. The conditions noted are these: read-out: Activity.
Series [11] relates to AGS. The experiment in a line: Cell cycle arrest in human AGS cells assessed as accumulation at G2 phase at 0.1 uM after 48 hrs by propidium iodide staining based flow cytometry (reference value: 16.41%). The series is classed as functional.
For series [12], the system named is AGS. As to the kind of experiment: Induction of apoptosis in human AGS cells assessed as late apoptotic cells at 0.1 uM after 48 hrs by Annexin-V-FITC/propidium iodide staining based flow cytometry (reference value: 0.3%). The series is classed as functional.
Series [13] relates to AGS. As to the kind of experiment: Induction of apoptosis in human AGS cells assessed as early apoptotic cells at 0.1 uM after 48 hrs by Annexin-V-FITC/propidium iodide staining based flow cytometry (reference value: 0.2%). The series is classed as functional.
Series [14] concerns AGS. The experiment in a line: Cell cycle arrest in human AGS cells assessed as accumulation at S phase at 0.1 uM after 48 hrs by propidium iodide staining based flow cytometry (reference value: 6.57%). It counts as functional.
Series [15] has as its system AGS. As to the kind of experiment: Cell cycle arrest in human AGS cells assessed as accumulation at G2 phase at 10 uM after 48 hrs by propidium iodide staining based flow cytometry (reference value: 16.41%). The series is classed as functional.
In series [16] the test system is AGS. As to the kind of experiment: Induction of apoptosis in human AGS cells assessed as necrotic cells at 0.1 uM after 48 hrs by Annexin-V-FITC/propidium iodide staining based flow cytometry (reference value: 2%). The series is classed as functional.
In series [17] the test system is AGS. The experiment in a line: Induction of apoptosis in human AGS cells assessed as viable cells at 0.1 uM after 48 hrs by Annexin-V-FITC/propidium iodide staining based flow cytometry (reference value: 97.5%). The conditions noted are these: read-out: Activity. It counts as functional.
For series [18], the system named is AGS. As to the kind of experiment: Induction of apoptosis in human AGS cells assessed as late apoptotic cells at 10 uM after 48 hrs by Annexin-V-FITC/propidium iodide staining based flow cytometry (reference value: 0.3%). It counts as functional.

Consider `O=c1ccc2cc3ccoc3c(OCc3cn(-c4ccc(Cl)cc4)nn3)c2o1`, for which, in series [1], the “Ratio IC50” value is above 12.2. Further, the IC50 is 8.2 µM with AGS [2] and above 100 µM with L02. Also, in the series with AGS [3], the inhibition of growth at 100 µM was determined as 89.6%.
On to `O=c1ccc2cc3ccoc3c(OCc3cn(-c4ccccc4F)nn3)c2o1`, for which the inhibition of growth at 100 µM in the series on AGS [3] was determined as 39.6%.
On to `O=c1ccc2cc3ccoc3c(OCc3nncn3-c3ccc(F)cc3)c2o1`, for which the “Ratio IC50” value in series [1] turned out to be 7.2. Also, the IC50 in the series with AGS [2] turned out to be 13.1 µM; in the series on L02 it was 94.2 µM. Also, the inhibition of growth at 100 µM in the series with AGS [3] was determined as 72.3%. Further, the inhibition at 48 h in [4] came out at 53.1%.
`O=c1ccc2cc3ccoc3c(OCc3cn(Cc4ccccc4Cl)nn3)c2o1`: in the series with AGS [3], the inhibition of growth at 100 µM turned out to be 33.2%.
`Cc1ccc(-n2cc(COc3c4occc4cc4ccc(=O)oc34)nn2)cc1`: the “Ratio IC50” value in [1] is reported as above 3. For the same compound, the IC50 with AGS [2] was 33.2 µM; in the series with L02, above 100 µM. Moreover, the inhibition of growth at 100 µM in the series with AGS [3] was 65.6%.
Turning to `Cc1ccc(Cn2cc(COc3c4occc4cc4ccc(=O)oc34)nn2)cc1`, the inhibition of growth at 100 µM in the series on AGS [3] turned out to be 47%.
With `COc1ccc(-n2cnnc2COc2c3occc3cc3ccc(=O)oc23)cc1`, in the series with AGS [3], the inhibition of growth at 100 µM came out at 34.4%.
Regarding `O=c1ccc2cc3ccoc3c(OCc3nncn3-c3ccc(Cl)cc3)c2o1`, the inhibition of growth at 100 µM with AGS [3] stood at 40.3%.
The same measure, in the same setting: next, `O=c1ccc2cc3ccoc3c(OCc3nncn3-c3ccccc3)c2o1`: 40.1%.
Turning to `O=c1ccc2cc3ccoc3c(OCc3cn(-c4ccc(F)cc4)nn3)c2o1`, the “Ratio IC50” value in series [1] was above 9.3. In addition, the results for the IC50 in the series on AGS [2] and with L02 were 10.7 µM and above 100 µM, respectively. Also, in the series on AGS [3], the inhibition of growth at 100 µM was determined as 70.4%.
As for `Cc1ccc(-n2cnnc2COc2c3occc3cc3ccc(=O)oc23)cc1`, the inhibition of growth at 100 µM in the series with AGS [3] worked out at 39.4%.
As for `O=c1ccc2cc3ccoc3c(OCc3cn(Cc4ccc(Cl)cc4Cl)nn3)c2o1`, the “Ratio IC50” value in series [1] turned out to be 3.4. Further, the IC50 worked out at 26.5 µM in the series with AGS [2] and 90.2 µM in the series with L02. The inhibition of growth at 100 µM with AGS [3] was 67.7%.
`O=c1ccc2cc3ccoc3c(OCc3cn(Cc4ccccc4F)nn3)c2o1`: in the series with AGS [3], the inhibition of growth at 100 µM was found to be 25.5%.
With `O=c1ccc2cc3ccoc3c(OCc3nncn3-c3ccc(C(F)(F)F)cc3)c2o1`, the “Ratio IC50” value in series [1] is given as above 2.4. In addition, the IC50 in the series on AGS [2] was 41 µM; in the series with L02 it was above 100 µM. Besides, the inhibition of growth at 100 µM with AGS [3] was 52.9%.
With `O=c1ccc2cc3ccoc3c(OCc3cn(Cc4cccc(C(F)(F)F)c4)nn3)c2o1`, the IC50 in the series on AGS [2] and in the series with L02 was above 100 µM throughout. For the same compound, the inhibition of growth at 100 µM in the series on AGS [3] was found to be 51.7%.
With `O=c1ccc2cc3ccoc3c(OCc3cn(Cc4ccc(F)cc4)nn3)c2o1`, the inhibition of growth at 100 µM in the series on AGS [3] was 43.1%.
As to `O=c1ccc2cc3ccoc3c(OCc3cn(Cc4cccc(Cl)c4)nn3)c2o1`, in the series with AGS [3], the inhibition of growth at 100 µM came to 49.5%.
On the same count and under the same terms, the value for `O=c1ccc2cc3ccoc3c(OCc3nncn3-c3ccccc3Cl)c2o1` was 45.2%.
For `O=c1ccc2cc3ccoc3c(OCc3cn(-c4ccc(C(F)(F)F)cc4)nn3)c2o1`, in [1], the “Ratio IC50” value was above 13.3. For the same compound, the Activity with AGS [5] turned out to be 0.9%; in the series on AGS [6], 49.76%; in the series with AGS [7], 1.7%; in the series with AGS [8] it was 61.1%; with AGS [9], 12.08%; with AGS [11] it was 31.73%. Further, the Activity with AGS [12] came to 0.8%; in the series with AGS [13], 0.3%; in the series with AGS [14] it was 7.17%; in the series on AGS [15], 38.17%; in the series on AGS [16], 1.8%; in the series with AGS [18] it was 1%. The IC50 is 7.5 µM with AGS [2] and above 100 µM in the series with L02. The inhibition of growth at 100 µM with AGS [3] came to 92.4%. Also, the viability at 10 µM with AGS [10] was determined as 96.4%. The compound also displayed an inhibition at 48 h in series [4] of 33.9%. In the series with AGS [17], the viability at 0.1 µM was 96.2%.
In the case of `Cc1nncn1-c1ccc(F)cc1`, the IC50 with AGS [2] and with L02 was above 100 µM throughout. Moreover, the inhibition of growth at 100 µM with AGS [3] amounted to 13.9%. This compound also returned an inhibition at 48 h in series [4] of 16.9%.
`O=c1ccc2cc3ccoc3c(OCc3cn(-c4ccccc4)nn3)c2o1`: the inhibition of growth at 100 µM in the series on AGS [3] amounted to 46.4%.
Regarding `COc1ccc(-n2cc(COc3c4occc4cc4ccc(=O)oc34)nn2)cc1`, the “Ratio IC50” value in series [1] was above 1.1. The IC50 in the series with AGS [2] is 94.6 µM; in the series on L02, above 100 µM. Besides, in the series with AGS [3], the inhibition of growth at 100 µM was determined as 53.2%.
Turning to `O=c1ccc2cc3ccoc3c(OCc3cn(Cc4ccccc4)nn3)c2o1`, in the series on AGS [3], the inhibition of growth at 100 µM is 24.4%.
Turning to `O=c1ccc2cc3ccoc3c(OCc3cn(Cc4c(Cl)cccc4Cl)nn3)c2o1`, the inhibition of growth at 100 µM in the series on AGS [3] is 32.5%.
As for `O=c1ccc2cc3ccoc3c(OCc3cn(Cc4cccc(F)c4)nn3)c2o1`, the inhibition of growth at 100 µM with AGS [3] amounted to 30.1%.
As for `O=c1ccc2cc3ccoc3c(OCc3cn(Cc4ccc(Cl)cc4)nn3)c2o1`, in [1], the “Ratio IC50” value is recorded as above 1.1. The IC50 in the series on AGS [2] is 93.2 µM; in the series on L02, above 100 µM. In addition, the inhibition of growth at 100 µM in the series on AGS [3] is 53.2%.
`Cc1cn(-c2ccc(C(F)(F)F)cc2)nn1`: the IC50 with AGS [2] and in the series with L02 was above 100 µM in each case. In addition, the inhibition of growth at 100 µM with AGS [3] was 44.5%. Moreover, the inhibition at 48 h in [4] turned out to be 9.4%.
In turn, `O=c1[nH]cc(F)c(=O)[nH]1` [FLUOROURACIL] came in with an IC50 in the series on AGS [2] of 29.6 µM. Also, the inhibition of growth at 100 µM with AGS [3] was 74.9%.
Consider `COc1c2occc2cc2ccc(=O)oc12` [METHOXSALEN], for which the IC50 with AGS [2] and in the series on L02 was above 100 µM each time. Also, the inhibition of growth at 100 µM in the series on AGS [3] was determined as 35.3%. This compound also registered an inhibition at 48 h in [4] of 3.3%.

By IC50 is commonly meant the concentration that inhibits the measured activity by half. The term inhibition denotes the drop in the measured response relative to a control, in per cent.
